Several values for one entry are separate records, joined by “and”; a condition that tells them apart may be missing. Identical values can stand only once. Toxic doses and inconclusive results are not listed. Non-standard residues stand in square brackets, D forms with d. Residues, ends and D or L forms follow the SMILES beside them. Deg = CCC(N)(CC)C(=O)O

The subject of this assay is CD2F1 mice, L1210 leukemia ip, survival T/C. Kind of assay: NCI In Vivo Anticancer Drug Screen. Data for tumor model L1210 Leukemia (intraperitoneal) in CD2F1 (CDF1) mice. Conditions: endpoint: mean survival time, higher = longer survival. In short, it runs like this: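 Compound-dosed mice with transplantable tumor versus matched vehicle controls; endpoint ratio T/C reported.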

Setting [1] is: dose: 12.5 mg/kg/injection, schedule: Q01DX009 (ip), vehicle: saline with Tween-80.
[2] abbreviates: dose: 25.0 mg/kg/injection, schedule: Q01DX009 (ip), vehicle: saline with Tween-80.
[3] abbreviates: dose: 50.0 mg/kg/injection, schedule: Q01DX009 (ip), vehicle: saline with Tween-80.
The mark [4] stands for this setting: dose: 100.0 mg/kg/injection, schedule: Q01DX009 (ip), vehicle: saline with Tween-80.
[5] abbreviates: dose: 200.0 mg/kg/injection, schedule: Q01DX009 (ip), vehicle: saline with Tween-80.
Setting [6] is: dose: 100.0 mg/kg/injection, schedule: Q04DX002 (ip), vehicle: saline with Tween-80.
The mark [7] stands for this setting: dose: 200.0 mg/kg/injection, schedule: Q04DX002 (ip), vehicle: saline with Tween-80.
[8] abbreviates: dose: 400.0 mg/kg/injection, schedule: Q04DX002 (ip), vehicle: saline with Tween-80.
Setting [9] is: dose: 100.0 mg/kg/injection, schedule: Q04DX003 (ip), vehicle: saline with Tween-80.
[10] abbreviates: dose: 200.0 mg/kg/injection, schedule: Q04DX003 (ip), vehicle: saline with Tween-80.
Setting [11] is: dose: 400.0 mg/kg/injection, schedule: Q04DX003 (ip), vehicle: saline with Tween-80.
[12] abbreviates: dose: 400.0 mg/kg/injection, schedule: Q01DX009 (ip), vehicle: saline with Tween-80.
[13] abbreviates: dose: 100.0 mg/kg/injection, schedule: Q01DX001 (ip), vehicle: saline.
Setting [14] is: dose: 100.0 mg/kg/injection, schedule: Q01DX001 (ip), vehicle: saline with Tween-80.
Setting [15] is: dose: 200.0 mg/kg/injection, schedule: Q01DX001 (ip), vehicle: saline with Tween-80.

`c1cnc2ncncc2n1`: the T/C is, setting by setting: under setting [1], 94 % of control and 102 % of control; under setting [2], 94 % of control and 102 % of control; under setting [3], 105 % of control and 106 % of control; under setting [4], 94 % of control and 104 % of control; under setting [5], 96 % of control and 110 % of control.

As to `CCC(CC)(NC(=O)CN)C(=O)O` (H-Gly-[Deg]-OH), the T/C is, setting by setting: under setting [6], 96 % of control; under setting [7], 104 % of control; under setting [8], 96 % of control.

`CCCCN1CCCC(O)C1` (centres undefined): the T/C is, setting by setting: under setting [3], 100 % of control; under setting [4], 100 % of control; under setting [5], 103 % of control.

On to `O.O=S(=O)(O)O.[NH-]C1CCCC1[NH-].[Pt+2]` (centres undefined), for which the T/C is 116 % of control and 120 % of control (dose: 0.5 mg/kg/injection, schedule: Q01DX009 (ip), vehicle: dextrose); 102 % of control and 106 % of control (dose: 0.5 mg/kg/injection, schedule: Q04DX003 (ip), vehicle: dextrose); 100 % of control and 104 % of control (dose: 1.0 mg/kg/injection, schedule: Q01DX001 (ip), vehicle: dextrose); 116 % of control and 112 % of control (dose: 1.0 mg/kg/injection, schedule: Q04DX003 (ip), vehicle: dextrose); 160 % of control (dose: 2.0 mg/kg/injection, schedule: Q01DX009 (ip), vehicle: dextrose); 119 % of control (dose: 2.0 mg/kg/injection, schedule: Q04DX003 (ip), vehicle: dextrose). Also, the T/C is, setting by setting: (dose: 4.0 mg/kg/injection, schedule: Q01DX009 (ip), vehicle: dextrose) 108 % of control; (dose: 4.0 mg/kg/injection, schedule: Q04DX003 (ip), vehicle: other) 165 % of control; (dose: 6.0 mg/kg/injection, schedule: Q01DX001 (ip), vehicle: dextrose) 151 % of control; (dose: 8.0 mg/kg/injection, schedule: Q04DX003 (ip), vehicle: dextrose) 160 % of control and 188 % of control; (dose: 10.0 mg/kg/injection, schedule: Q01DX001 (ip), vehicle: dextrose) 160 % of control; (dose: 16.0 mg/kg/injection, schedule: Q04DX003 (ip), vehicle: dextrose) 102 % of control.

For `CC(C)CCCC(C)C1CCC2C3=CCC4CC(=O)CCC4(C)C3CCC21C` (centres undefined), the T/C under setting [9] is 95 % of control, the T/C under setting [10] was 92 % of control and the T/C under setting [11] is 93 % of control.

On to `COC(=O)C(CCCCN)NS(=O)(=O)c1ccccc1` (centres undefined), for which the T/C runs as follows: under setting [4], 96 % of control; under setting [9], 109 % of control; under setting [5], 100 % of control; under setting [10], 91 % of control; under setting [12], 96 % of control; under setting [11], 103 % of control.

With `CC(C)(C)NC(=O)CCC(CC(=O)NC(C)(C)C)OCc1ccccc1` (centres undefined), the T/C reads like this: under setting [3], 100 % of control; under setting [4], 104 % of control; under setting [9], 101 % of control; under setting [5], 102 % of control; under setting [10], 106 % of control; under setting [12], 93 % of control. Further, the T/C under setting [11] was 93 % of control.

As for `O=C(O)CBr.O=C(O)CBr.[NH-]C1CCCCCCC1[NH-].[Pt+2]` (centres undefined), the T/C (dose: 4.68 mg/kg/injection, schedule: Q01DX001 (ip), vehicle: distilled water + Tween-80) was 122 % of control; the T/C (dose: 9.36 mg/kg/injection, schedule: Q01DX001 (ip), vehicle: distilled water + Tween-80) was 119 % of control; the T/C (dose: 18.75 mg/kg/injection, schedule: Q01DX001 (ip), vehicle: distilled water + Tween-80) was 161 % of control.

Regarding `Cc1cc(=O)ncn1C`, the T/C (dose: 100.0 mg/kg/injection, schedule: Q04DX002 (ip), vehicle: saline) was 101 % of control; the T/C (dose: 200.0 mg/kg/injection, schedule: Q04DX002 (ip), vehicle: saline) is 97 % of control; the T/C (dose: 400.0 mg/kg/injection, schedule: Q04DX002 (ip), vehicle: saline) is 101 % of control.

For the molecule `NC(CSC(c1ccccc1)(c1ccccc1)c1ccc(CBr)cc1)C(=O)O` (centres undefined), the T/C is 107 % of control (dose: 12.5 mg/kg/injection, schedule: Q01DX009 (ip), vehicle: other); 107 % of control (dose: 25.0 mg/kg/injection, schedule: Q01DX009 (ip), vehicle: other); 109 % of control (dose: 50.0 mg/kg/injection, schedule: Q01DX009 (ip), vehicle: other); 115 % of control (dose: 100.0 mg/kg/injection, schedule: Q01DX009 (ip), vehicle: other); 164 % of control (dose: 400.0 mg/kg/injection, schedule: Q01DX009 (ip), vehicle: other).

As for `C/C(=N\O)c1ccc2c3c(ccc([N+](=O)[O-])c13)CC2`, the T/C is 98 % of control under setting [9], 98 % of control under setting [10] and 103 % of control under setting [11].

Turning to `Clc1ccc(-c2cc(-c3ccc(Cl)cc3)cc(-c3ccc(Cl)cc3)c2)cc1`, the T/C under setting [4] was 101 % of control, the T/C under setting [5] is 106 % of control and the T/C under setting [12] was 105 % of control.

For `O=C1c2ccccc2C(C(O)(C(F)(F)F)C(F)(F)F)c2ccccc21`, the T/C by setting is: under setting [1], 100 % of control; under setting [2], 98 % of control; under setting [3], 96 % of control.

For the molecule `O=c1cccc(Cl)[nH]1`, the T/C is 102 % of control under setting [4]; 98 % of control under setting [9]; 102 % of control under setting [5]; 102 % of control under setting [10]; 90 % of control under setting [12]; 98 % of control under setting [11].

As to `Nc1ccn(C2CC(O)C(CO)C2)c(=O)n1` (centres undefined), the T/C is, setting by setting: under setting [13], 100 % of control; (dose: 200.0 mg/kg/injection, schedule: Q01DX001 (ip), vehicle: saline) 105 % of control; (dose: 400.0 mg/kg/injection, schedule: Q01DX001 (ip), vehicle: saline) 97 % of control.

`CCCCOCN(COCCCC)C12CC3CC(CC(C3)C1)C2`: the T/C reads like this: under setting [1], 96 % of control and 100 % of control; under setting [2], 98 % of control; under setting [3], 101 % of control and 103 % of control; under setting [4], 101 % of control and 105 % of control; under setting [5], 113 % of control and 108 % of control.

With `CC(C)OC(=O)Nc1cc(F)cc(C(F)(F)F)c1F`, the T/C is, setting by setting: under setting [4], 94 % of control; under setting [5], 97 % of control; under setting [12], 97 % of control.

With `Cn1c2cc(Cl)c(Cl)cc2nc2cc3c(cc21)c(Cl)c(=O)c1cc2cc(Cl)c(Cl)cc2cc13`, the T/C was 95 % of control (dose: 100.0 mg/kg/injection, schedule: Q04DX003 (ip), vehicle: saline); 95 % of control (dose: 200.0 mg/kg/injection, schedule: Q04DX003 (ip), vehicle: saline); 100 % of control (dose: 400.0 mg/kg/injection, schedule: Q04DX003 (ip), vehicle: saline).

`CN1CCC(CN2c3ccccc3Sc3ccccc32)C1` (centres undefined): the T/C under setting [1] was 107 % of control, the T/C under setting [2] was 102 % of control and the T/C under setting [3] was 123 % of control.

For `CCOC(=O)Oc1c(Cl)c(Cl)c(Cl)c(Cl)c1Cl`, the T/C under setting [9] is 96 % of control, the T/C under setting [10] was 96 % of control and the T/C under setting [11] was 95 % of control.

Consider `CCOC(=O)/C=C(C)/C=C/C=C(/C)CCC=C(C)C`, for which the T/C reads like this: under setting [6], 100 % of control; under setting [7], 100 % of control; under setting [8], 92 % of control.

Consider `CN1CCC(Br)(C(=O)c2ccccc2)CC1`, for which the T/C (dose: 37.5 mg/kg/injection, schedule: Q01DX009 (ip), vehicle: saline with Tween-80) was 100 % of control; the T/C (dose: 75.0 mg/kg/injection, schedule: Q01DX009 (ip), vehicle: saline with Tween-80) was 95 % of control; the T/C (dose: 75.0 mg/kg/injection, schedule: Q04DX003 (ip), vehicle: saline with Tween-80) is 97 % of control; the T/C (dose: 150.0 mg/kg/injection, schedule: Q01DX009 (ip), vehicle: saline with Tween-80) was 92 % of control; the T/C (dose: 150.0 mg/kg/injection, schedule: Q04DX003 (ip), vehicle: saline with Tween-80) was 98 % of control.

On to `CCC1CC(=O)C2Nc3ccccc3C2C1` (centres undefined), for which the T/C is 88 % of control under setting [14] and 86 % of control (dose: 400.0 mg/kg/injection, schedule: Q01DX001 (ip), vehicle: saline with Tween-80).

Regarding `[Co+3].[NH-]CC[NH-].[NH-]CC[NH-].[NH-]CC[NH-].[O-][I+2]([O-])O`, the T/C is, setting by setting: under setting [6], 100 % of control; under setting [7], 96 % of control.

With `O=C[c-]1[c-][c-][c-][c-]1.[Fe+2].[c-]1[c-][c-][cH-][c-]1`, the T/C is 117 % of control under setting [14] and 100 % of control under setting [15].

In the case of `CCOC1(C)OC2C(CO)OC(n3ccc4c(N)ncnc43)C2O1` (centres undefined), the T/C under setting [13] is 111 % of control.

For `CC(=O)Nc1ccc(S(=O)(=O)/N=C2\C=CC(=O)c3ccccc32)cc1`, the T/C was 98 % of control under setting [3], 104 % of control under setting [14], 100 % of control under setting [4] and 111 % of control under setting [15].

(Values after PubChem BioAssay AID256 (DTP/NCI, 2004).)
